How the values were obtained:
Format in all cases: in vivo
kochia (Kochia scoparia) [1] = assay: Test A preemergence; details: Bassia scoparia, pre-emergence, 240 h, 0 to 100 scale (0 no effect, 100 complete control), read-out: Kochia plant response rating
How it was run: (§1)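 Pre- and postemergence greenhouse screen. Soil: loam + sand. Spray carrier: solvent mixture, non-phytotoxic, with surfactant. Post timing at 1–2 leaves, height 2–10 cm. Readout: visual injury on a 0–100 scale roughly 10 days after application, untreated plants as reference.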

[2] = tested on: ragweed (common ragweed, Ambrosia elatior); assay: Test A preemergence; details: Ambrosia artemisiifolia, pre-emergence, 240 h, 0 to 100 scale (0 no effect, 100 complete control), read-out: Ragweed plant response rating
How it was run: as §1

[3] = tested on: pigweed (Amaranthus retroflexus); assay: Test A preemergence; details: Amaranthus retroflexus, pre-emergence, 240 h, 0 to 100 scale (0 no effect, 100 complete control), read-out: Pigweed plant response rating
How it was run: as §1

[4] = tested on: Italian ryegrass (Lolium multiflorum); assay: Test A preemergence; details: Lolium multiflorum, pre-emergence, 240 h, 0 to 100 scale (0 no effect, 100 complete control), read-out: Ryegrass, Italian plant response rating
How it was run: as §1

[5] = tested on: giant foxtail (Setaria faberii); assay: Test A preemergence; details: Setaria faberi, pre-emergence, 240 h, 0 to 100 scale (0 no effect, 100 complete control), read-out: Foxtail, Giant plant response rating
How it was run: as §1

[6] = tested on: barnyardgrass (Echinochloa crus-galli); assay: Test A preemergence; details: Echinochloa crus-galli, pre-emergence, 240 h
How it was run: as §1

[7] = tested on: ducksalad (Heteranthera limosa); assay: Test B flooded paddy; details: Heteranthera limosa, 336 h; 250 g ai/ha, Flood, 13 to 15 days, scale 0 (no effect) to 100 (complete control); read-out: Plant response rating, Ducksalad
How it was run: (§2)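 Compound was added to standing water 3 cm above soil, flood maintained, and plants held in a greenhouse before visual scoring against controls at 13 to 15 days.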

rice (Oryza sativa) = assay: Test B flooded paddy; details: Oryza sativa, 336 h; 250 g ai/ha, Flood, 13 to 15 days, scale 0 (no effect) to 100 (complete control); read-out: Plant response rating, Rice
How it was run: as §2

[8] = tested on: sedge, umbrella (small-flower umbrella sedge, Cyperus difformis); assay: Test B flooded paddy; details: Cyperus difformis, 336 h; 250 g ai/ha, Flood, 13 to 15 days, scale 0 (no effect) to 100 (complete control); read-out: Plant response rating, Sedge, Umbrella
How it was run: as §2

[9] = tested on: barnyardgrass (Echinochloa crus-galli); assay: Test B flooded paddy; details: Echinochloa crus-galli, 336 h; 250 g ai/ha, Flood, 13 to 15 days, scale 0 (no effect) to 100 (complete control); read-out: Plant response rating, Barnyardgrass
How it was run: as §2

kochia (Kochia scoparia) [10] = assay: Test A postemergence; details: Bassia scoparia, post-emergence, 240 h, 0 to 100 scale, read-out: Plant response rating, Kochia
How it was run: as §1

[11] = tested on: blackgrass (Alopecurus myosuroides); assay: Test A postemergence; details: Alopecurus myosuroides, post-emergence, 240 h, 0 to 100 scale, read-out: Plant response rating, Blackgrass
How it was run: as §1

[12] = tested on: galium (catchweed bedstraw, Galium aparine); assay: Test A postemergence; details: Galium, post-emergence, 240 h, 0 to 100 scale, read-out: Plant response rating, Galium
How it was run: as §1

[13] = tested on: wheat (Triticum aestivum); assay: Test A postemergence; details: Triticum aestivum, post-emergence, 240 h, 0 to 100 scale, read-out: Plant response rating, Wheat
How it was run: as §1

[14] = tested on: ragweed (common ragweed, Ambrosia elatior); assay: Test A postemergence; details: Ambrosia artemisiifolia, post-emergence, 240 h, 0 to 100 scale, read-out: Plant response rating, Ragweed
How it was run: as §1

[15] = tested on: pigweed (Amaranthus retroflexus); assay: Test A postemergence; details: Amaranthus retroflexus, post-emergence, 240 h, 0 to 100 scale, read-out: Plant response rating, Pigweed
How it was run: as §1

corn (Zea mays) = assay: Test A postemergence; details: Zea mays, post-emergence, 240 h, 0 to 100 scale
How it was run: as §1

[16] = tested on: Italian ryegrass (Lolium multiflorum); assay: Test A postemergence; details: Lolium multiflorum, post-emergence, 240 h, 0 to 100 scale, read-out: Plant response rating, Ryegrass, Italian
How it was run: as §1

[17] = tested on: giant foxtail (Setaria faberii); assay: Test A postemergence; details: Setaria faberi, post-emergence, 240 h, 0 to 100 scale, read-out: Plant response rating, Foxtail, Giant
How it was run: as §1

[18] = tested on: barnyardgrass (Echinochloa crus-galli); assay: Test A postemergence; details: Echinochloa crus-galli, post-emergence, 240 h, 0 to 100 scale, read-out: Plant response rating, Barnyardgrass
How it was run: as §1

kochia (Kochia scoparia) [19] = assay: Test C postemergence; details: Bassia scoparia, post-emergence, Postemergence, scale 0 to 100, read-out: Plant response rating, Kochia
How it was run: (§3)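 After preemergence treatment of seeds in loam-sand soil or foliar treatment at the 1- to 4-leaf stage of plants in peat/vermiculite medium, pots were kept 13-15 days in the greenhouse. Each was then scored visually, 0 meaning no effect and 100 complete control.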

[20] = tested on: waterhemp (common waterhemp, Amaranthus rudis); assay: Test C postemergence; details: Amaranthus tuberculatus, post-emergence, Postemergence, scale 0 to 100, read-out: Plant response rating, Waterhemp
How it was run: as §3

wild oat (Avena fatua) = assay: Test C postemergence; details: Avena fatua, post-emergence, Postemergence, scale 0 to 100, read-out: Plant response rating, Oat, Wild
How it was run: as §3

Fc1ccc(F)c(Oc2ncc(Cl)cn2)c1Oc1ncc(Cl)cn1 [Compound 34, 2,2′-[(3,6-difluoro-1,2-phenylene)bis(oxy)]bis[5-chloropyrimidine]]
5%: pest or weed control at 62 g/ha (wild oat (Avena fatua); 62 g ai/ha)
0%: pest or weed control at 31 g/ha ([2]; 31 g ai/ha) | pest or weed control at 31 g/ha ([4]; 31 g ai/ha) | plant injury at 250 g/ha (rice (Oryza sativa)) | pest or weed control at 250 g/ha [9] | plant injury at 31 g/ha ([13]; 31 g ai/ha) | Corn plant response rating (crop injury, 0 = no effect, 100 = complete kill) at 31 g/ha (corn (Zea mays); 31 g ai/ha) | pest or weed control at 31 g/ha ([18]; 31 g ai/ha) | pest or weed control at 31 g/ha (wild oat (Avena fatua); 31 g ai/ha)
50%: pest or weed control at 125 g/ha ([4]; 125 g ai/ha) | pest or weed control at 31 g/ha (kochia (Kochia scoparia) [10]; 31 g ai/ha) | pest or weed control at 125 g/ha ([14]; 125 g ai/ha) | pest or weed control at 125 g/ha ([16]; 125 g ai/ha) | pest or weed control at 125 g/ha ([18]; 125 g ai/ha)
60%: pest or weed control at 31 g/ha ([11]; 31 g ai/ha) | pest or weed control at 16 g/ha (kochia (Kochia scoparia) [19]; 16 g ai/ha) | pest or weed control at 31 g/ha (kochia (Kochia scoparia) [19]; 31 g ai/ha)
80%: pest or weed control at 31 g/ha (kochia (Kochia scoparia) [1]; 31 g ai/ha) | pest or weed control at 125 g/ha ([6]; 125 g ai/ha, 0 to 100 scale, read-out: Plant response rating, Barnyardgrass) | pest or weed control at 31 g/ha ([12]; 31 g ai/ha) | pest or weed control at 125 g/ha ([15]; 125 g ai/ha) | pest or weed control at 62 g/ha ([20]; 62 g ai/ha)
10%: pest or weed control at 125 g/ha ([2]; 125 g ai/ha) | pest or weed control at 31 g/ha ([6]; 31 g ai/ha, 0 to 100 scale (0 no effect, 100 complete control), read-out: Barnyardgrass plant response rating) | Corn plant response rating (crop injury, 0 = no effect, 100 = complete kill) at 125 g/ha (corn (Zea mays); 125 g ai/ha) | pest or weed control at 31 g/ha ([16]; 31 g ai/ha) | pest or weed control at 125 g/ha (wild oat (Avena fatua); 125 g ai/ha)
90%: pest or weed control at 125 g/ha (kochia (Kochia scoparia) [1]; 125 g ai/ha) | pest or weed control at 125 g/ha ([5]; 125 g ai/ha) | pest or weed control at 125 g/ha ([12]; 125 g ai/ha) | pest or weed control at 62 g/ha (kochia (Kochia scoparia) [19]; 62 g ai/ha) | pest or weed control at 125 g/ha (kochia (Kochia scoparia) [19]; 125 g ai/ha) | pest or weed control at 125 g/ha ([20]; 125 g ai/ha)
100%: pest or weed control at 31 g/ha ([3]; 31 g ai/ha) | pest or weed control at 125 g/ha ([3]; 125 g ai/ha)
70%: pest or weed control at 31 g/ha ([5]; 31 g ai/ha) | pest or weed control at 125 g/ha (kochia (Kochia scoparia) [10]; 125 g ai/ha) | pest or weed control at 125 g/ha ([11]; 125 g ai/ha) | pest or weed control at 31 g/ha ([15]; 31 g ai/ha) | pest or weed control at 125 g/ha ([17]; 125 g ai/ha) | pest or weed control at 31 g/ha ([20]; 31 g ai/ha)
30%: pest or weed control at 250 g/ha [7] | pest or weed control at 250 g/ha [8] | plant injury at 125 g/ha ([13]; 125 g ai/ha) | pest or weed control at 31 g/ha ([14]; 31 g ai/ha) | pest or weed control at 31 g/ha ([17]; 31 g ai/ha)

Reference: patent US20170190671A1, “BIS(ARYL)CATECHOL DERIVATIVES AS HERBICIDES” (E I DU PONT DE NEMOURS AND COMPANY, priority 2014, published 2017)
